Experimental data published in US5688938A, “Calcium receptor-active molecules” (priority 1995, dated 1997).
Where a name gives a salt, the structure may show the parent alone. Read-outs that look alike come from different tables or passages of the source.

Target: T1, parathyroid cell calcium receptor (Bos taurus, UniProt P35384)
T1 sequence (P35384 21-1085 limits assumed): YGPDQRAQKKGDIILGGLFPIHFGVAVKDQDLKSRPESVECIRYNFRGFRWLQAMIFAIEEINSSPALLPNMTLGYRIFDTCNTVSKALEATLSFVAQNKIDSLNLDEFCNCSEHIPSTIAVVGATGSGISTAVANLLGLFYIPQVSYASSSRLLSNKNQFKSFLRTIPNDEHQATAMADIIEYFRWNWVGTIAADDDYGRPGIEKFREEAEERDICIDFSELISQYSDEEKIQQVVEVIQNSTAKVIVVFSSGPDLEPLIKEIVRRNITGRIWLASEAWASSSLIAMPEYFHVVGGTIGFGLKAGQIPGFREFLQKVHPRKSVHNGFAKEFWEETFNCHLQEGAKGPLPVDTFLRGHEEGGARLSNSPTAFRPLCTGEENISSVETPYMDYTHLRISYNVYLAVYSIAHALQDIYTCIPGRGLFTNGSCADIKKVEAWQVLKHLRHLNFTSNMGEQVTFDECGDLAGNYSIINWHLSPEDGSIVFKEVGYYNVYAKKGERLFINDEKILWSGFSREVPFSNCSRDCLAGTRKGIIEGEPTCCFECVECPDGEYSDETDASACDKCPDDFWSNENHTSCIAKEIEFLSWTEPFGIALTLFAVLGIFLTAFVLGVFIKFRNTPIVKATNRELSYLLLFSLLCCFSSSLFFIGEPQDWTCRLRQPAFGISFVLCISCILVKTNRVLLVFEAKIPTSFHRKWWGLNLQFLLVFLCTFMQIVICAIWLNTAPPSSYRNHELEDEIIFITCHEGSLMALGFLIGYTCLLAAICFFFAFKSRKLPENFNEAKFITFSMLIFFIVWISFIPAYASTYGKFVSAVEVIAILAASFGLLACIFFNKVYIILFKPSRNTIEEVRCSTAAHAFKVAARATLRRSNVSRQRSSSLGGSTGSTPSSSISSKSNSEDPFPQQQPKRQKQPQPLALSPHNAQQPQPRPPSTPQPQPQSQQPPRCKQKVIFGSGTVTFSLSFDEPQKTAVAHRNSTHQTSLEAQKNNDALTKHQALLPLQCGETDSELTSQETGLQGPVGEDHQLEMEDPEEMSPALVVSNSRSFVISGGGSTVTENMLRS
Experiment: cell-based
Type: cell-based
Settings: for effect on basal [Ca^2+]i or increases evoked by extracellular Ca^2+: 1 μM; for EC50: parathyroid cell calcium receptor, read-out: EC50

[1] = Table 8 (arylalkylamine calcimimetics)

`N[C@@]1(C(=O)O)CC[C@@H](C(=O)O)C1` (relative stereo) [trans-ACPD, reference compound] was tested, and the “response to mGluR agonists” value (bovine parathyroid cells, or Xenopus oocytes expressing calcium receptors) was “did not respond”.
For `CC1=C(C(=O)OC(C)C)C(c2cccc3nonc23)C([N+](=O)[O-])=C(C)N1` (single isomer, unassigned; (-)) [(-) 202-791, reference compound], the “effect on basal [Ca^2+]i or increases evoked by extracellular Ca^2+” value was “None of the dihydropyridines tested”.
Compound `COc1cccc([C@@H](C)NC2CCc3ccccc3C2)c1` (stereo partly drawn) [5W/5Y] has an EC50 [1] of 3.6 µM.
With `COc1ccc(OC)c([C@@H](C)NCCCc2ccccc2)c1` [7Z(R-)] the EC50 (Table 7) was greater than 30 µM.
`COc1ccc(OC)c([C@H](C)NCCCc2ccccc2)c1` [7Z(S-)] was tested, and the EC50 (Table 7) was greater than 100 µM.
With `N=C(N)NCCC[C@H](N)C(=O)NCCCNCCCNCCCCCNC(=O)[C@H](CC(N)=O)NC(=O)Cc1ccc(O)cc1O` [Argiotoxin-636, reference compound] the “increases in [Ca^2+]i” value (400 μM) was “did not elicit increases”, the “potentiation of cytosolic Ca^2+ responses to extracellular Ca^2+” value (400 μM) was “did potentiate” and the “increases in [Ca^2+]i” value (100 to 300 μM) was “had no effect”.
With `COC(=O)C1=C(C)NC(C)=C([N+](=O)[O-])C1c1ccccc1C(F)(F)F` (stereo not drawn) [BAY K 8644, reference compound] the “effect on basal [Ca^2+]i or increases evoked by extracellular Ca^2+” value was “None of the dihydropyridines tested”.
For `c1ccc(CNCCC(c2ccccc2)c2ccccc2)cc1` [Compound 1A], the EC50 (Table 7) was 166 µM.
In the case of `CC(NCCCc1ccccc1)c1ccccc1` (stereo not drawn) [Compound 1D], the EC50 (Table 7) is reported as 48 µM and the relative potency (in words) is reported as “nearly as potent as the parent molecule”.
`CCC(NCCC(c1ccccc1)c1ccccc1)c1ccccc1` (stereo not drawn) [Compound 1E] showed an EC50 (Table 7) of 123 µM.
In the case of `CC(NCCCCc1ccccc1)c1ccccc1` (stereo not drawn) [Compound 1S], the EC50 (Table 7) is reported as 128 µM.
`CC(NCCC(c1ccccc1)c1ccccc1)c1cccc2ccccc12` (stereo not drawn) [Compound 3U] showed an EC50 [1] of 0.64 µM.
`COc1cccc([C@@H](C)NCCCc2cccc(F)c2)c1` [Compound 4N] was tested, and the EC50 [1] was 0.8 µM.
With `COc1cccc([C@@H](C)NCCCc2ccc(F)cc2)c1` [Compound 4P] the EC50 [1] was 1.6 µM.
With `COc1cccc(C(C)NCCC(C)c2ccccc2Cl)c1` (stereo not drawn) [Compound 4Y] the EC50 [1] was 1.3 µM.
In the case of `COc1cccc(C(C)NC(C)c2cccc3ccccc23)c1` (stereo not drawn) [Compound 6E], the EC50 [1] is reported as 2.7 µM.
`CCOc1cccc([C@@H](C)NCCCc2ccccc2)c1` [Compound 6R] showed an EC50 [1] of 3.4 µM.
For `CCOc1cccc([C@@H](C)NCCCc2ccccc2Cl)c1` [Compound 6T], the EC50 [1] was 2.9 µM.
Compound `C[C@H](NCCCc1ccccc1)C1CCCCC1` [Compound 7Y] has an EC50 (Table 7) greater than 30 µM.
Compound `COc1cccc([C@@H](C)NCCCc2ccccc2OC)c1` [Compound 8U, (R)-(+)-N-3-(2-Methoxyphenyl)-1-propyl-3-methoxy-α-methylbenzylamine hydrochloride] has an EC50 [1] of 0.44 µM and an EC50 ([…]) of less than 5 µM.
For `COc1cccc([C@@H](C)NCCCc2ccc(C)cc2)c1` [Compound 8X], the EC50 [1] was 0.76 µM.
In the case of `COc1cccc([C@H](C)NCCCc2ccc(C)cc2)c1` [Compound 8Y], the EC50 (Table 7) is reported as greater than 30 µM.
Work on `C[C@@H](NCc1ccc2ccccc2c1)c1cccc2ccccc12` [Compound 9C] yielded an EC50 [1] of 0.6 µM.
`CC(C)C(N[C@H](C)c1cccc2ccccc12)c1ccc2ccccc2c1` (stereo partly drawn) [Compound 10F] showed an EC50 [1] of 0.89 µM.
Work on `CCOC(=O)COc1cccc([C@@H](C)NCc2ccc3ccccc3c2)c1` [Compound 11D] yielded an EC50 [1] of 1.8 µM.
Compound `COc1cccc([C@@H](C)NCCCc2ccccc2C)c1` [Compound 12U, (R)-N-3-(2-Methylphenyl)-1-propyl-3-methoxy-α-methylbenzylamine hydrochloride] has an EC50 [1] of 1.2 µM and an EC50 ([…]) of less than 5 µM.
`COc1cccc([C@@H](C)NCCCc2cccc(C)c2)c1` [Compound 12V, (R)-N-3-(3-Methylphenyl)-1-propyl-3-methoxy-α-methylbenzylamine hydrochloride] gave an EC50 [1] of 0.42 µM and an EC50 ([…]) of less than 5 µM.
`CCCOc1ccc(CN[C@H](C)c2cccc3ccccc23)cc1` [Compound 13Q] was tested, and the EC50 [1] was roughly 0.8 µM.
With `C[C@@H](NCc1ccc(Cl)c(Cl)c1)c1cccc2ccccc12` [Compound 13R] the EC50 [1] was 0.25 µM.
`C[C@@H](NCc1ccc(C(F)(F)F)cc1)c1cccc2ccccc12` [Compound 13S] was tested, and the EC50 [1] was less than 0.13 µM.
